Measurements: PubChem BioAssay (NCI)
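Cultured in 96-well plates, cells were exposed to test compound for 48 hours across five concentrations. Definition used: TGI = concentration required for complete inhibition of growth.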

Key:
Experiment in all cases: inhibition of tumour cell growth, NCI panel, 48 h
DU-145 prostate = test system: DU-145 prostate
SF-295 CNS = test system: SF-295 CNS
MDA-N = test system: MDA-N
HT29 colon = test system: HT29 colon
UACC-62 melanoma = test system: UACC-62 melanoma
A498 renal = test system: A498 renal
UACC-257 melanoma = test system: UACC-257 melanoma
SK-MEL-5 melanoma = test system: SK-MEL-5 melanoma
RXF 393 renal = test system: RXF 393 renal
SNB-19 CNS = test system: SNB-19 CNS
K-562 leukemia = test system: K-562 leukemia
HCT-116 colon = test system: HCT-116 colon
SNB-75 CNS = test system: SNB-75 CNS
CAKI-1 renal = test system: CAKI-1 renal
SR leukemia = test system: SR leukemia
OVCAR-3 ovarian = test system: OVCAR-3 ovarian
SK-OV-3 ovarian = test system: SK-OV-3 ovarian
786-0 renal = test system: 786-0 renal
SN12C renal = test system: SN12C renal
A549 NSCLC = test system: A549 NSCLC
COLO 205 colon = test system: COLO 205 colon
ACHN renal = test system: ACHN renal
SF-268 CNS = test system: SF-268 CNS
MOLT-4 leukemia = test system: MOLT-4 leukemia
HL-60(TB) leukemia = test system: HL-60(TB) leukemia
OVCAR-5 ovarian = test system: OVCAR-5 ovarian
EKVX NSCLC = test system: EKVX NSCLC
T-47D breast = test system: T-47D breast
CCRF-CEM leukemia = test system: CCRF-CEM leukemia
PC-3 prostate = test system: PC-3 prostate
RPMI-8226 leukemia = test system: RPMI-8226 leukemia
NCI-H460 lung = test system: NCI-H460 lung
HOP-92 NSCLC = test system: HOP-92 NSCLC
MDA-MB-435 = test system: MDA-MB-435
U251 CNS = test system: U251 CNS
OVCAR-4 ovarian = test system: OVCAR-4 ovarian
NCI-H23 lung = test system: NCI-H23 lung
HS 578T breast = test system: HS 578T breast
SK-MEL-2 melanoma = test system: SK-MEL-2 melanoma
NCI-H226 lung = test system: NCI-H226 lung
NCI-H522 lung = test system: NCI-H522 lung
HCC-2998 colon = test system: HCC-2998 colon
BT-549 breast = test system: BT-549 breast
KM12 colon = test system: KM12 colon
LOX IMVI melanoma = test system: LOX IMVI melanoma
M14 melanoma = test system: M14 melanoma
NCI/ADR-RES ovarian = test system: NCI/ADR-RES ovarian
MCF7 breast = test system: MCF7 breast
HCT-15 colon = test system: HCT-15 colon
SW-620 colon = test system: SW-620 colon
SK-MEL-28 melanoma = test system: SK-MEL-28 melanoma
TK-10 renal = test system: TK-10 renal
MALME-3M melanoma = test system: MALME-3M melanoma
MDA-MB-231 breast = test system: MDA-MB-231 breast
UO-31 renal = test system: UO-31 renal
SF-539 CNS = test system: SF-539 CNS

## O=C(CSc1nc2ccc(I)cc2c(=O)n1Cc1ccccc1)NNC(=S)Nc1ccccc1
DU-145 prostate
  TGI: > 100 µM
SF-295 CNS
  TGI: > 100 µM
MDA-N
  TGI: > 100 µM
HT29 colon
  TGI: > 100 µM
UACC-62 melanoma
  TGI: > 100000 nM
A498 renal
  TGI: > 100 µM
UACC-257 melanoma
  TGI: 98.7 µM
SK-MEL-5 melanoma
  TGI: > 100000 nM
RXF 393 renal
  TGI: > 100 µM
SNB-19 CNS
  TGI: > 100 µM
K-562 leukemia
  TGI: > 100 µM
HCT-116 colon
  TGI: > 100 µM
SNB-75 CNS
  TGI: > 100 µM
CAKI-1 renal
  TGI: > 100 µM
SR leukemia
  TGI: 23.3 µM
OVCAR-3 ovarian
  TGI: > 100 µM
SK-OV-3 ovarian
  TGI: > 100 µM
786-0 renal
  TGI: > 100 µM
SN12C renal
  TGI: > 100 µM
A549 NSCLC
  TGI: > 100 µM
COLO 205 colon
  TGI: > 100 µM
ACHN renal
  TGI: > 100000 nM
SF-268 CNS
  TGI: > 100 µM
MOLT-4 leukemia
  TGI: > 100000 nM
HL-60(TB) leukemia
  TGI: > 100 µM
OVCAR-5 ovarian
  TGI: > 100 µM
EKVX NSCLC
  TGI: 6.14 µM
T-47D breast
  TGI: > 100 µM
CCRF-CEM leukemia
  TGI: > 100000 nM
PC-3 prostate
  TGI: > 100 µM
RPMI-8226 leukemia
  TGI: > 100 µM
NCI-H460 lung
  TGI: > 100 µM
HOP-92 NSCLC
  TGI: > 100 µM
MDA-MB-435
  TGI: > 100 µM
U251 CNS
  TGI: > 100 µM
OVCAR-4 ovarian
  TGI: > 100 µM
NCI-H23 lung
  TGI: > 100000 nM
HS 578T breast
  TGI: > 100 µM
SK-MEL-2 melanoma
  TGI: > 100 µM
NCI-H226 lung
  TGI: > 100000 nM
NCI-H522 lung
  TGI: > 100 µM
HCC-2998 colon
  TGI: > 100 µM
BT-549 breast
  TGI: > 100 µM
KM12 colon
  TGI: > 100 µM
LOX IMVI melanoma
  TGI: > 100000 nM
M14 melanoma
  TGI: > 100 µM
NCI/ADR-RES ovarian
  TGI: > 100 µM
MCF7 breast
  TGI: > 100 µM
HCT-15 colon
  TGI: > 100 µM
SW-620 colon
  TGI: > 100 µM
SK-MEL-28 melanoma
  TGI: > 100 µM
TK-10 renal
  TGI: > 100 µM

## CC[C@@]1(O)C(=O)OCc2c1cc1n(c2=O)Cc2c-1nc1ccccc1c2/C=N\NC(=O)C(N)Cc1ccc(O)cc1 (stereo partly drawn)
SF-295 CNS
  TGI: 3.16 µM
MDA-N
  TGI: > 31.6 µM
UACC-62 melanoma
  TGI: 1710 nM
A498 renal
  TGI: 3.65 µM
UACC-257 melanoma
  TGI: 18.9 µM
SK-MEL-5 melanoma
  TGI: 2700 nM
RXF 393 renal
  TGI: 4.38 µM
SNB-19 CNS
  TGI: > 31.6 µM
K-562 leukemia
  TGI: > 100 µM
HCT-116 colon
  TGI: 4.44 µM
MALME-3M melanoma
  TGI: 7.8 µM
SR leukemia
  TGI: 0.396 µM
SK-OV-3 ovarian
  TGI: 9.77 µM
786-0 renal
  TGI: 6.55 µM
SN12C renal
  TGI: 7.75 µM
COLO 205 colon
  TGI: > 31.6 µM
ACHN renal
  TGI: 2750 nM
MOLT-4 leukemia
  TGI: 1590 nM
HL-60(TB) leukemia
  TGI: 4.69 µM
MDA-MB-231 breast
  TGI: > 31.6 µM
T-47D breast
  TGI: > 25.7 µM
CCRF-CEM leukemia
  TGI: 1150 nM
RPMI-8226 leukemia
  TGI: 5.62 µM
NCI-H460 lung
  TGI: 10.8 µM
HOP-92 NSCLC
  TGI: 5.64 µM
U251 CNS
  TGI: 5.04 µM
OVCAR-4 ovarian
  TGI: > 31.6 µM
NCI-H23 lung
  TGI: 1820 nM
NCI-H226 lung
  TGI: 2640 nM
NCI-H522 lung
  TGI: 5.21 µM
BT-549 breast
  TGI: > 31.6 µM
LOX IMVI melanoma
  TGI: 2770 nM
UO-31 renal
  TGI: 8.76 µM
SF-539 CNS
  TGI: 217 nM
HCT-15 colon
  TGI: > 31.6 µM
TK-10 renal
  TGI: > 31.6 µM
